Measured values taken from patent US8063104B2, “Guanidine derivatives as inhibitors of DDAH” (UCL Business PLC, priority 2004, dated 2011).
Where “and” joins values, the source holds several entries; their conditions need not be identical. Equal entries are not always repeated. Where two headings read alike, the source gives them in different places.

Columns and labels:
RAW cells = experiment: Cell viability assay (MTT) in RAW cells
Description: RAW cells were treated with DDAH inhibitor compound (0.5 mM) in complete media for 24 h; cells were subsequently assessed for viability by MTT assay. Cell culture media was removed from cells and replaced with 200 μl complete media containing 3-[4,5-Dimethylthiazol-2-yl]-2,5-diphenyltetrazolium bromide (MTT 0.2 mg/ml) for 30 min at 37° C. MTT containing media was removed and 100 ul DMSO was added to solubilize cells; after shaking, plates were read at OD550 nm.

DDAH = molecular target: T1, DDAH (Rattus norvegicus, UniProt O08557); experiment: DDAH activity assay (rat kidney lysate, [14C]L-NMMA to [14C]citrulline); type: biochemical; settings: 1 mM compound, [14C]L-NMMA 1 μmol/L, 1 h 37° C.
T1 construct: Rat kidney was homogenized in PBS; from tissue; host or cells: rat kidney homogenate, high-speed supernatant
T1 sequence (O08557 2-285 limits assumed): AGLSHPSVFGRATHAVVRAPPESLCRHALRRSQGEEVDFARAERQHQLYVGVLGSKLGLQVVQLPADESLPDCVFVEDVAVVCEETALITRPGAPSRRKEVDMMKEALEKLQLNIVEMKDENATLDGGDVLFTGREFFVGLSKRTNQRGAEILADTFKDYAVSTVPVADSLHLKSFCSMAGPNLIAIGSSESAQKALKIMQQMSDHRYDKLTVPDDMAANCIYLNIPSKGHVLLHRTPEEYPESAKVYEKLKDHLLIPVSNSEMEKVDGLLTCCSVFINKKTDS
Description: Rat kidney was homogenized in PBS containing PMSF 1 mM, leupeptin 5 μg/ml, pepstatin 5 μg/ml, chymostatin 5 μg/ml, and the lysate was centrifuged (4000 rpm. 20 min then supernatant further centrifuged for 40000 rpm, 30 min, 4° C.). The supernatants were analyzed for DDAH activity; [^14[…]) was added to the cell lysates (final volume 100 μl) and incubated for 1 h at 37° C. Dowex resin (0.5 ml) at neutral pH was immediately added to samples to terminate the reaction and bind unmetabolized L-NMMA. [^14C]Citrulline formation was determined by scintillation counting (Hewlett Packard).

eNOS = eNOS assay ([14C]arginine conversion); type: biochemical; settings: eNOS activity
Description: Compounds to be tested were added to NOS assay buffer (HEPES 50 mM pH 7.2, FAD 5 μM, FMN 5 μM, BH4 10 μM, NADPH 1 mM, DTT 0.5 mM, CaCl2 1 mM, MgCl2 1 mM, calmodulin 50 nM, [^14C] arginine 100 μM) in a final volume of 100 μl and the reaction was initiated by addition of eNOS (eNOS 3.3. U/reaction, Alexis Biochemicals). Reactions were incubated for 1 h at 37° C. and the reaction was terminated by the addition of Dowex pH 5.5 (0.85 ml) to each tube. Tubes were vortexed and microfuged <12000 g, 5 min. 100 μl of the Dowex supernatant was added to 5 ml scintillation cocktail and was counted in a scintillation counter (Hewlett Packard). The compounds were tested at 1 mM and 0.1 mM concentrations. Activity is expressed as % of control where control contained no inhibitor, n=4. The DDAH inhibitors of the present invention tested had no significant effect on eNOS activity.

iNOS = molecular target: T2, iNOS (Mus musculus, UniProt P29477); experiment: iNOS activity Greiss assay in stimulated RAW cells; type: cell-based; settings: Griess NOx, RAW cells stimulated 24 h with LPS/IFN and TNF, compound 0.5 mM, 550 nm; control 0.367 ± 0.021
T2 construct: endogenous in cells; host or cells: RAW cells stimulated with LPS/IFN and TNF
Description: RAW cells were stimulated for 24 h with LPS/IFN and TNF, in the presence of the DDAH inhibitor compounds (0.5 mM). Levels of NOx secreted into the media by the cells were determined by Griess assay: Greiss reagent [1:1 sulfanilamide ([…]) in ortho-phosphoric acid (50%) and N-(1-napthyl)ethylenediamine dihydrochloride (1%)] was added as 100 μl volume to 100 μl cell culture media and the plate was read at 550 nm and analysed in relation to sodium nitrite and nitrate standards.

[1] = In vivo study: serum dimethylarginine levels after i.v. bolus; design: species or system Male Wistar rats; settings: 4 hours after 60 mg/kg i.v. bolus, control 1.81 ± 0.23
Description: Male Wistar rats (250-300 g; Charles River, Margate, Kent, UK) were anaesthetised using Isoflurane. The jugular vein was cannulated. Animals were injected intravenously with a bolus dose of inhibitor (60 mg/kg) or saline. Anaesthesia was maintained for 4 hours at the end of which blood was obtained via cardiac puncture for the determination of serum dimethylarginine levels. [All animals received care in compliance with The British Home Office Regulations and Principles of Laboratory Animal Care. (Project licenses PPL/5344, PPL/4824, PPL 70/5580)]
SDMA is not a substrate for DDAH and the levels of SDMA would be expected to be the same of the treated and the control animals, and this was the case. Since there is a great deal of variability of the “normal” ADMA and SDMA level, it is useful to measure the ratio of ADMA and SDMA in each animal to provide a reliable indicator of the relative changes of these to substances.

rat aortic rings [2] = experiment: NOx production from endotoxin-treated rat aortic rings in static culture; type: cell-based; settings: endotoxin 10 μg/ml, compound 500 μM
Description: FIG. 1 is a graph showing the nitrate and nitrite (NOx) production from isolated rat aortic rings in static culture in the presence of either media alone (untreated); media plus 10 μg/ml LPS (LPS) and media plus 10 μg/ml LPS and 500 μM SR257 or SR291. n≧6; *p<0.0001 One Way ANOVA plus Bonferroni post hoc correction;
Effects of two compounds SR 291 [N^G-(2-methoxyethyl)-L-arginine methyl ester] and SR 257 [N^G-(2-methoxyethyl)-L-arginine]) have been tested in a series of models of endotoxin-induced vascular dysfunction. Treatment of rat aortic vascular rings in static culture with endotoxin (10 μg/ml) led to an increase in generation of nitric oxide (as measured by nitrite and nitrate). This increase in NO was prevented by treatment with 500 μM SR257 or SR291.

[3] = tested on: zymosan-induced peritonitis; experiment: Zymosan-induced peritonitis, TO mice; type: in vivo; settings: for cells 10^6/ml (individual animals 1-6): 60 mg/kg iv −30 min, +2 hrs, taken off at 4 hrs, listed as SR291, 60 mg/kg
Description: (§1) The effects of a DDAH inhibitor on zymosan-induced peritonitis were tested in two different strains of mice. C57/Blk6 or TO mice, male 8-10 weeks were placed in a heat box for 10 mins at 38° C., and treated with 60 mg/kg of SR291 [NA-(2-methoxyethyl)-L-arginine methyl ester] i.v. 30 mins later they were given 1 mg of zymosan i.p. A second dose of SR291 (60 mg/kg) was administered 2 h later and after 4 h mice were anesthetised with isofluorane and blood withdrawn by cardiac puncture. Mice were sacrificed and had 2 mls of ice cold PBS injected into their peritoneal cavity, the cavity was then gently massaged and cut open, the peritoneal washout was harvested and put on ice. Blood was spun down at 400 g, 10 mins at 4° C. The cells were spun at 4000 rpm for 5 mins at 4° C. Plasma was removed from the blood and frozen at −80° C. The exudates from the washout were removed and frozen at −80° C., the cell pellet was resuspended in 1 ml ice cold PBS and were counted on a haemocytometer. The cells were spun as before, the supernatant discarded and the cells frozen at −80° C. Polymorphonuclear (PMN) cell infiltrate into the peritoneal cavity was used to measure inflammation. […] Taken off at 4 hrs. […] Taken off at 4 hrs.

[4] = tested on: zymosan-induced peritonitis; experiment: Zymosan-induced peritonitis, C57/Blk6 mice; type: in vivo
Description: as §1

rat aortic rings [5] = experiment: Endotoxin-induced hyporeactivity to vasoconstrictors in rat aortic rings; type: cell-based; settings: endotoxin 0.3 μg/ml, compound 100 μM and 200 μM
Description: Incubation of rat aortic rings with endotoxin (0.3 μg/ml) led to the development of hyporeactivity to vasoconstrictors.

[6] = Endotoxin-induced fall in systemic blood pressure in anaesthetized rat; type: in vivo; settings: endotoxin 40 mg/kg, infusion 30 mg/kg/hr
Description: Effects of intervention after 2-3 hours (when blood pressure had fallen to 80% of baseline pre LPS blood pressure) with 30 mg/kg/hr infusion of SR291; Injection of endotoxin (40 mg/kg) into rats caused a progressive fall in systemic BP. The decline was halted by infusion of 30 mg/kg/hr SR291.

[7] = MTT, RAW cells, compound 0.5 mM, 24 h, OD550 nm, control 2.54 ± 0.26

Row | inhibition at 1000 µM (DDAH) [%] | OD units drug ± sd (iNOS) [OD units] | Compound | OD units drug ± sd (RAW cells) [OD units] | % of control ± sd (eNOS; 0.1 mM compound) | % of control ± sd (eNOS; 1 mM compound) | OD units drug ± sd (RAW cells; [7]) [OD units] | other results
1 | 75 | 0.329 ± 0.013 | COCCN=C(N)NCC[C@H](N)C(=O)OC [Example 22, (S)-2-Amino-4-(N′-(2-methoxyethyl)guanidino)butanoic acid methyl ester] | 2.33 ± 0.19 | 87.23 ± 18.05 [2] % of control | 84.05 ± 8.09 [4] % of control | – | –
2 | – | 0.103 ± 0.002 | CC(=N)NCCC[C@H](N)C(=O)O [NIO, L-N-5-(1-iminoethyl)ornithine, reference compound] | – | 4.14 ± 8.74 [3] % of control | 6.25 ± 7.52 [5] % of control | 1.89 ± 0.41 | –
3 | – | 0.351 ± 0.013 | CCCOC(=O)[C@@H](N)CCN(CCOC)C(=N)N [Example 24, (S)-2-Amino-4-(N-(2-methoxyethyl)guanidino)butanoic acid propyl ester] | – | 113.5 ± 7.93 [2] % of control | 93.97 ± 12.93 [4] % of control | – | Inhibition at 1 mM, % (DDAH): 64%
4 | 83 | 0.325 ± 0.009 | COCCN=C(N)NCCCC(N)C(=O)OC [Example 28, N^G-(2-Methoxyethyl)-L-arginine methyl ester] | 2.41 ± 0.10 | 120.8 ± 17.80 [2] % of control | 112.5 ± 27.47 [4] % of control | – | ADMA:SDMA ± sd [1]: 2.73 ± 0.44; endotoxin-induced increase in NO (nitrite and nitrate) (rat aortic rings [2]): prevented; cells 10^6/ml (individual animals 1-6) ([3]; TO mice male 8-10 weeks, first study): 3.05 10^6/ml and 3.35 10^6/ml and 3.2 10^6/ml and 1.4 10^6/ml and 3.9 10^6/ml and 4.3 10^6/ml; cells 10^6/ml (individual animals 1-6) ([3]; TO mice, second study): 4.3 10^6/ml (2×) and 4.6 10^6/ml and 4.85 10^6/ml and 5.2 10^6/ml and 3.9 10^6/ml; cells 10^6/ml, mean ([3]; cumulative of Table 9 dataset, saline 4.783333): 3.2 10^6/ml; cells 10^6/ml, mean ([3]; cumulative of Table 11 dataset, saline 6.125): 4.525 10^6/ml; cells 10^6/ml, mean ([3]; cumulative of the two datasets of Tables 9 and 11, saline 5.454167): 3.8625 10^6/ml; cells million/ml (peritoneal washout, individual animals 1-5) ([4]; C57 male 8-10 weeks, 60 mg/kg iv −30 min, taken off at 4 hrs, listed as SR291, 60 mg/kg): 3 million/ml and 4 million/ml and 4.5 million/ml and 6.5 million/ml and 9 million/ml; cells 10^6/ml, mean ([4]; combination of two datasets for the C57 mice, saline 6.7455): 4.2 10^6/ml; cells million/ml, mean ([4]; cumulative of Table 6 dataset, saline 9.1): 5.4 million/ml; PMN infiltrate into the peritoneal cavity ([4]; three separate experiments, 8-12 mice each, C57/Blk6 or TO mice, 60 mg/kg i.v.): significantly reduced; endotoxin-induced hyporeactivity to vasoconstrictors (rat aortic rings [5]): reversed dose dependently; progressive fall in systemic BP [6]: halted
5 | 100 | 0.326 ± 0.014 | COCCN=C(N)NCCCC(N)C(=O)O [Example 21, N^G-(2-methoxyethyl)-L-arginine] | – | 96.84 ± 30.49 [2] % of control | 84.81 ± 22.74 [4] % of control | 2.15 ± 0.13 | ADMA:SDMA ± sd [1]: 3.50 ± 0.48; endotoxin-induced increase in NO (nitrite and nitrate) (rat aortic rings [2]): prevented; endotoxin-induced hyporeactivity to vasoconstrictors (rat aortic rings [5]): reversed dose dependently
6 | 96 | 0.327 ± 0.026 | COCCN=C(N)NCC[C@H](N)C(=O)OCc1ccccc1 [Example 26, (S)-2-Amino-4-(N′-(2-methoxyethyl)guanidino)butanoic acid benzyl ester] | 2.40 ± 0.17 | 101.2 ± 38.07 [2] % of control | 82.88 ± 10.08 [4] % of control | – | –

Row | Compound | inhibition at 1000 µM (DDAH) [%] | OD units drug ± sd (iNOS) [OD units] | OD units drug ± sd (RAW cells) [OD units] | % of control ± sd (eNOS; 0.1 mM compound) | % of control ± sd (eNOS; 1 mM compound) | OD units drug ± sd (RAW cells; [7]) [OD units] | other results
7 | CNC(=N)NCCC[C@H](N)C(=O)O [L-NMMA, N^G monomethyl-L-arginine, reference compound] | – | 0.121 ± 0.003 | – | – | 16.17 ± 15.78 [4] % of control | 2.22 ± 0.08 | –
